Measured values: patent US20070249678A1, “SYNTHESIS AND USES OF PYROGLUTAMIC ACID DERIVATIVES” (Prodimed, S.A., priority 2006, published 2007)
“Also recorded” adds a separate entry of the source.

Test system: Renca cells (renal cell carcinoma)
Assay: Effect of the isomers on in vivo tumour growth in mice challenged with Renca cells
Conditions: for Tumour surface, overall values (Mean) / Tumour surface, overall values (Median) / Tumour volume, overall values (Mean) / Tumour volume, overall values (Median): 260 ng/mouse i.p. on days 6, 7 and 14, s.c. Renca in Balb/c mice; for Inhibitory effect on in vivo Renca tumour growth (conclusion in words): 260 ng i.p. on days 6, 7 and 14, Balb/c mice
Text: This assay was made in order to check the effect of each stereoisomer on in vivo tumour growth in mice challenged with Renca cells. Their effect was compared with placebo. The stereoisomers assayed were: • Isomer 1: 3R,5S-1-(3-Amino-5-carboxy-2-oxopyrrolidin-3-ylmethyl)pyridinium bromide hidrobromide (9b) • Isomer 2: 3R,5R-1-(3-Amino-5-carboxy-2-oxopyrrolidin-3-ylmethyl)pyridinium bromide hidrobromide (9c) • Isomer 3: 3S,5S-1-(3-Amino-5-carboxy-2-oxopyrrolidin-3-ylmethyl)pyridinium bromide hidrobromide (9a) • Isomer 4: 3 S,5R-1-(3-Amino-5-carboxy-2-oxopyrrolidin-3-ylmethyl)pyridinium bromide hidrobromide (9d)
Renca is a renal cell carcinoma originated in Balb/c mouse strain, and therefore syngeneic in mice with Balb/c genetic background [Melder R J et al., Cancer Immunol. Immunother., 2005, 54:535-547; Felluga B et al., 1969, J. Natl. Cancer Inst. 43:319-333]. Renca is considered a moderate immunogenic tumour and used as suitable model for testing immunointervention approaches [Salup R R, et al., 1992, The Journal of Urology, 147:1120-1123].
Renca cells (CLS, Eppelheim, Germany) were maintained in vitro by serial passages every 3-4 days. Cultures were performed with RPMI medium medium (RPMI, 10% foetal calf serum, 2 mM L-glutamine, non essential amino acids, 1 mM sodium pyruvate, 20 mM HEPES, 80 μg/mL gentamycin; all of them were purchased from Sigma, St. Louis, Mo., USA) by seeding 5×10^6 cells onto 75 cm^2 culture flasks. Tumour cells collected from 48 hour cultures upon trypsinization (Sigma, St. Louis, Mo., USA) were used as source of Renca cells for the studies described below.
Each isomer was tested at the dose levels of 260 ng administered on days 6, 7 and 14 after tumour inoculation.
The treatments were given by intraperitoneal route. The volume inoculated was 0.2 mL/animal. This route was chosen because it is the one described in the original method [Perez S, et al., 2003, Clinical Cancer Research. 9:5776-5785].
Tumours were established by subcutaneous inoculation in the right hind flank. Mice (Balb/c) were inoculated with 0.2 mL containing 105 viable Renca cells. The day of subcutaneous inoculation will be considered Day 0 of the test.
Balb/c mice inoculated with Renca cells were distributed into 5 experimental groups:
Mice were observed daily and the tumour size recorded twice a week. This was carried out by measuring two perpendicular diameters (L/W) with a calliper. These measures were used to obtain both tumour surface and volume:
Tumour surface=L×W (mm^2)
Tumour volume=L×W^2×½(mm^3)
Results were expressed as single values and/or as the mean±SD or median from each experimental group.
A case-control study was performed with treated and control mice in order to determine whether differences between isomers and administration of placebo were present. The data obtained (tumoral surface and volume) were tested for Normal distribution within the groups—Kolmogorov Smimov test p<0,05—. […] The U-test of Mann Withney was chosen for being one of the better known non-parametrical tests, anyway, results for this test are equivalent both to those of Wilcoxon's sum of ranges and Kruskal-Wallis two-groups test.
Due to the high dispersion of data, outlayers (animals beyond percentile 25 or above percentile 75 for tumour surface at day 25) were excluded of the study.

[1] = day 11 after tumour inoculation
[2] = day 14 after tumour inoculation
[3] = day 18 after tumour inoculation
[4] = day 21 after tumour inoculation
[5] = day 25 after tumour inoculation

Br.N[C@@]1(C[n+]2ccccc2)C[C@@H](C(=O)O)NC1=O.[Br-] (single isomer, unassigned; isomer 1) [isomer 1, 3R,5S-1-(3-Amino-5-carboxy-2-oxopyrrolidin-3-ylmethyl)pyridinium bromide hidrobromide]
Tumour surface, overall values (Mean) (day 0 after tumour inoculation): 0 mm^2
Tumour surface, overall values (Median) (day 0 after tumour inoculation): 0 mm^2
Tumour volume, overall values (Mean) (day 0 after tumour inoculation): 0 mm^3
Tumour volume, overall values (Median) (day 0 after tumour inoculation): 0 mm^3
Tumour surface, overall values (Mean) [1]: 1.2 mm^2
Tumour surface, overall values (Median) [1]: 0 mm^2
Tumour volume, overall values (Mean) [1]: 1.73 mm^3
Tumour volume, overall values (Median) [1]: 0 mm^3
Tumour surface, overall values (Mean) [2]: 14.1 mm^2
Tumour surface, overall values (Median) [2]: 12.5 mm^2
Tumour volume, overall values (Mean) [2]: 36.88 mm^3
Tumour volume, overall values (Median) [2]: 22.75 mm^3
Tumour surface, overall values (Mean) [3]: 44.07 mm^2
Tumour surface, overall values (Median) [3]: 36 mm^2
Tumour volume, overall values (Mean) [3]: 174.37 mm^3
Tumour volume, overall values (Median) [3]: 108 mm^3
Tumour surface, overall values (Mean) [4]: 86.6 mm^2
Tumour surface, overall values (Median) [4]: 81 mm^2
Tumour volume, overall values (Mean) [4]: 429.07 mm^3
Tumour volume, overall values (Median) [4]: 329.25 mm^3
Tumour surface, overall values (Mean) [5]: 149.97 mm^2
Tumour surface, overall values (Median) [5]: 160.5 mm^2
Tumour volume, overall values (Mean) [5]: 895.58 mm^3
Tumour volume, overall values (Median) [5]: 907.5 mm^3

Br.N[C@@]1(C[n+]2ccccc2)C[C@H](C(=O)O)NC1=O.[Br-] (single isomer, unassigned; isomer 2) [isomer 2, 3R,5R-1-(3-Amino-5-carboxy-2-oxopyrrolidin-3-ylmethyl)pyridinium bromide hidrobromide]
Tumour surface, overall values (Mean) (day 0 after tumour inoculation): 0 mm^2
Tumour surface, overall values (Median) (day 0 after tumour inoculation): 0 mm^2
Tumour volume, overall values (Mean) (day 0 after tumour inoculation): 0 mm^3
Tumour volume, overall values (Median) (day 0 after tumour inoculation): 0 mm^3
Tumour surface, overall values (Mean) [1]: 1.6 mm^2
Tumour surface, overall values (Median) [1]: 0 mm^2
Tumour volume, overall values (Mean) [1]: 2.34 mm^3
Tumour volume, overall values (Median) [1]: 0 mm^3
Tumour surface, overall values (Mean) [2]: 14.46 mm^2
Tumour surface, overall values (Median) [2]: 9 mm^2
Tumour volume, overall values (Mean) [2]: 32.05 mm^3
Tumour volume, overall values (Median) [2]: 13.5 mm^3
Tumour surface, overall values (Mean) [3]: 55.14 mm^2
Tumour surface, overall values (Median) [3]: 42 mm^2
Tumour volume, overall values (Mean) [3]: 217.43 mm^3
Tumour volume, overall values (Median) [3]: 126 mm^3
Tumour surface, overall values (Mean) [4]: 96.86 mm^2
Tumour surface, overall values (Median) [4]: 77 mm^2
Tumour volume, overall values (Mean) [4]: 453.89 mm^3
Tumour volume, overall values (Median) [4]: 278.75 mm^3
Tumour surface, overall values (Mean) [5]: 156.53 mm^2
Tumour surface, overall values (Median) [5]: 140 mm^2
Tumour volume, overall values (Mean) [5]: 938.48 mm^3
Tumour volume, overall values (Median) [5]: 613.25 mm^3
Deaths of mice in treatment group (second week after tumour inoculation, 260 ng i.p., animals excluded): Two mice from isomer 2 group died for unknown causes

Br.N[C@]1(C[n+]2ccccc2)C[C@@H](C(=O)O)NC1=O.[Br-] (single isomer, unassigned; isomer 3) [isomer 3, 3S,5S-1-(3-Amino-5-carboxy-2-oxopyrrolidin-3-ylmethyl)pyridinium bromide hidrobromide]
Inhibitory effect on in vivo Renca tumour growth (conclusion in words): inhibit the in vivo growth of the renal cell carcinoma (Renca)
Tumour surface, overall values (Mean) (day 0 after tumour inoculation): 0 mm^2
Tumour surface, overall values (Median) (day 0 after tumour inoculation): 0 mm^2
Tumour volume, overall values (Mean) (day 0 after tumour inoculation): 0 mm^3
Tumour volume, overall values (Median) (day 0 after tumour inoculation): 0 mm^3
Tumour surface, overall values (Mean) [1]: 0.3 mm^2
Tumour surface, overall values (Median) [1]: 0 mm^2
Tumour volume, overall values (Mean) [1]: 0.28 mm^3
Tumour volume, overall values (Median) [1]: 0 mm^3
Tumour surface, overall values (Mean) [2]: 7.5 mm^2
Tumour surface, overall values (Median) [2]: 4 mm^2
Tumour volume, overall values (Mean) [2]: 14.55 mm^3
Tumour volume, overall values (Median) [2]: 4 mm^3
Tumour surface, overall values (Mean) [3]: 31 mm^2
Tumour surface, overall values (Median) [3]: 18 mm^2
Tumour volume, overall values (Mean) [3]: 101.4 mm^3
Tumour volume, overall values (Median) [3]: 36 mm^3
Tumour surface, overall values (Mean) [4]: 64.57 mm^2
Tumour surface, overall values (Median) [4]: 45.5 mm^2
Tumour volume, overall values (Mean) [4]: 278.15 mm^3
Tumour volume, overall values (Median) [4]: 148.75 mm^3
Tumour surface, overall values (Mean) [5]: 106.17 mm^2
Tumour surface, overall values (Median) [5]: 90 mm^2
Tumour volume, overall values (Mean) [5]: 557.18 mm^3
Tumour volume, overall values (Median) [5]: 405 mm^3
p of differences in Renca tumour growth rate vs. placebo (surface or volume), Mann-Whitney U test (days 18th and 25th of tumour development, 260 ng i.p.): < 0.05

Br.N[C@]1(C[n+]2ccccc2)C[C@H](C(=O)O)NC1=O.[Br-] (single isomer, unassigned; isomer 4) [isomer 4, 3 S,5R-1-(3-Amino-5-carboxy-2-oxopyrrolidin-3-ylmethyl)pyridinium bromide hidrobromide]
Inhibitory effect on in vivo Renca tumour growth (conclusion in words): inhibit the in vivo growth of the renal cell carcinoma (Renca); also recorded: highest inhibitory effect on Renca tumour growth
p of differences in Renca tumour growth rate vs. placebo (surface or volume), Mann-Whitney U test (all days scored after the day 14th of tumour development, 260 ng i.p.): < 0.01
Tumour surface, overall values (Mean) (day 0 after tumour inoculation): 0 mm^2
Tumour surface, overall values (Median) (day 0 after tumour inoculation): 0 mm^2
Tumour volume, overall values (Mean) (day 0 after tumour inoculation): 0 mm^3
Tumour volume, overall values (Median) (day 0 after tumour inoculation): 0 mm^3
Tumour surface, overall values (Mean) [1]: 0 mm^2
Tumour surface, overall values (Median) [1]: 0 mm^2
Tumour volume, overall values (Mean) [1]: 0 mm^3
Tumour volume, overall values (Median) [1]: 0 mm^3
Tumour surface, overall values (Mean) [2]: 2.87 mm^2
Tumour surface, overall values (Median) [2]: 0 mm^2
Tumour volume, overall values (Mean) [2]: 4.73 mm^3
Tumour volume, overall values (Median) [2]: 0 mm^3
Tumour surface, overall values (Mean) [3]: 15.47 mm^2
Tumour surface, overall values (Median) [3]: 9 mm^2
Tumour volume, overall values (Mean) [3]: 40.67 mm^3
Tumour volume, overall values (Median) [3]: 13.5 mm^3
Tumour surface, overall values (Mean) [4]: 37.37 mm^2
Tumour surface, overall values (Median) [4]: 25 mm^2
Tumour volume, overall values (Mean) [4]: 126.42 mm^3
Tumour volume, overall values (Median) [4]: 62.5 mm^3
Tumour surface, overall values (Mean) [5]: 81.3 mm^2
Tumour surface, overall values (Median) [5]: 63.5 mm^2
Tumour volume, overall values (Mean) [5]: 372.82 mm^3
Tumour volume, overall values (Median) [5]: 238.25 mm^3
